Assays:
protein kinase PK-II = assay: Protein kinase inhibition assay, PK-II fraction (protamine-sulfate, [γ-33P]ATP); format: biochemical, Neurospora crassa; settings: 100 μM in the enzyme assay mixture; protamine-sulfate as substrate; relative to DMSO control (=0% inhibition)
Procedure: (§1) Mycelium from a stock culture of the wild-type strain 74-OR8-1, obtained from the American Type Culture Collection (ATCC 18889), is grown as inoculum in Petri dishes (d=9 cm) at 24° C. in the dark for 14 days (medium: Biomalt 10 g, Difco dry yeast extract 4 g, glucose 4 g and agar 20 g, in 1 l water). […]
(§2) Protein kinase activity is assayed in a reaction mixture containing in a final volume of […], 20 mM Tris-HCl (pH 7.4), 20 mg protamine-sulfate, 10 mM Mg(NO3)2, 10 mM ATP (0.2 mCi [g-^33P]ATP), 1 mM NaN3, 0.04 mM okadaic acid, […] of protein kinase. After 20 minutes incubation at 32° C., aliquots of […] are analyzed for substrate phosphorylation using P81 chromatography paper (20 mm×20 mm; Whatman, Maidstone, UK) according to the method described by J. J. Witt and R. Roskoski (Anal. Biochem., 66, 253-258, 1975). After washing the unbounded radioactivity with 75 mM phosphoric acid (3×15 min) and ethanol 94% (1×5 min) the radioactivity in the chromatography paper is counted in 5 ml ULTIMA GOLD LSC-cocktail (Packard Instrument, Zürich, Switzerland) using a Tri-Carb 2500 TR Packard Instrument. […]

protein kinase PK-III = assay: Protein kinase inhibition assay, PK-III fraction (protamine-sulfate, [γ-33P]ATP); format: biochemical, Neurospora crassa; settings: 100 μM in the enzyme assay mixture; protamine-sulfate as substrate; relative to DMSO control (=0% inhibition)
Procedure: as §1, §2

N#Cc1c[nH]cc1-c1cccc(Cl)c1Cl [fenpiclonil, 4-(2,3-dichlorophenyl)pyrrole-3-carbonitrile]
inhibition of protein kinase PK-II (protein kinase PK-II): 67%
inhibition of protein kinase PK-III (protein kinase PK-III): 90%

— patent publication US6399319B1, “Protein kinase assay as a method for identification of fungicides” (Syngenta Crop Protection, Inc., priority 1996, dated 2002)
